Source: PubChem BioAssay (NCI)
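Cells were grown in 96-well plates and exposed to each compound for 48 hours at five concentrations; endpoints were interpolated linearly between bracketing concentrations, or set to the highest concentration if not reached. At the TGI there is no net growth.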

How the values were obtained:
Assay in all cases: NCI-60 cell line screen, 48 h
[1] = system: NCI-H460 lung
[2] = system: SN12C renal
[3] = system: MOLT-4 leukemia
[4] = system: K-562 leukemia
[5] = system: NCI-H23 lung
[6] = system: M14 melanoma
[7] = system: T-47D breast
[8] = system: KM12 colon
[9] = system: OVCAR-3 ovarian
[10] = system: MDA-N
[11] = system: DU-145 prostate
[12] = system: COLO 205 colon
[13] = system: U251 CNS
[14] = system: ACHN renal
[15] = system: SW-620 colon
[16] = system: RPMI-8226 leukemia
[17] = system: HT29 colon
[18] = system: UACC-62 melanoma
[19] = system: SK-MEL-5 melanoma
[20] = system: BT-549 breast
[21] = system: HOP-62 NSCLC
[22] = system: RXF 393 renal
[23] = system: HL-60(TB) leukemia
[24] = system: MALME-3M melanoma
[25] = system: NCI/ADR-RES ovarian
[26] = system: MDA-MB-435
[27] = system: OVCAR-8 ovarian
[28] = system: LOX IMVI melanoma
[29] = system: CAKI-1 renal
[30] = system: HOP-92 NSCLC
[31] = system: EKVX NSCLC
[32] = system: HCT-15 colon
[33] = system: A549 NSCLC
[34] = system: SF-268 CNS
[35] = system: TK-10 renal
[36] = system: SNB-75 CNS
[37] = system: SNB-19 CNS
[38] = system: SR leukemia
[39] = system: 786-0 renal
[40] = system: UACC-257 melanoma
[41] = system: SK-MEL-28 melanoma
[42] = system: SK-MEL-2 melanoma
[43] = system: OVCAR-4 ovarian
[44] = system: A498 renal
[45] = system: HS 578T breast
[46] = system: HCT-116 colon
[47] = system: NCI-H522 lung
[48] = system: OVCAR-5 ovarian
[49] = system: CCRF-CEM leukemia
[50] = system: SF-539 CNS
[51] = system: UO-31 renal
[52] = system: NCI-H226 lung
[53] = system: MCF7 breast
[54] = system: SF-295 CNS
[55] = system: SK-OV-3 ovarian
[56] = system: IGROV1 ovarian
[57] = system: HCC-2998 colon
[58] = system: MDA-MB-231 breast
[59] = system: PC-3 prostate

COC(=O)c1ccccc1C1CN=NC12Cc1c(C)cccc1C2=O (centres undefined)
TGI [1]: > 100 µM
TGI [2]: > 100 µM
TGI [3]: > 100 µM
TGI [4]: > 100 µM
TGI [5]: > 100 µM
TGI [6]: > 100 µM
TGI [7]: > 100 µM
TGI [8]: > 100 µM
TGI [9]: > 100 µM
TGI [10]: > 100 µM
TGI [11]: > 100 µM
TGI [12]: > 100 µM
TGI [13]: > 100 µM
TGI [14]: > 100 µM
TGI [15]: > 100 µM
TGI [16]: > 100 µM
TGI [17]: > 100 µM
TGI [18]: > 100 µM
TGI [19]: > 100 µM
TGI [20]: > 100 µM
TGI [21]: > 100 µM
TGI [22]: > 100 µM
TGI [23]: > 100 µM
TGI [24]: > 100 µM
TGI [25]: > 100 µM
TGI [26]: > 100 µM
TGI [27]: > 100 µM
TGI [28]: > 100 µM
TGI [29]: > 100 µM
TGI [30]: > 100 µM
TGI [31]: > 100 µM
TGI [32]: > 100 µM
TGI [33]: > 100 µM
TGI [34]: > 100 µM
TGI [35]: > 100 µM
TGI [36]: > 100 µM
TGI [37]: > 100 µM
TGI [38]: > 100 µM
TGI [39]: > 100 µM
TGI [40]: > 100 µM
TGI [41]: > 100 µM
TGI [42]: > 100 µM
TGI [43]: > 100 µM
TGI [44]: > 100 µM
TGI [45]: > 100 µM
TGI [46]: > 100 µM
TGI [47]: > 100 µM
TGI [48]: > 100 µM
TGI [49]: > 100 µM
TGI [50]: > 100 µM
TGI [51]: > 100 µM
TGI [52]: > 100 µM
TGI [53]: > 100 µM
TGI [54]: > 100 µM
TGI [55]: > 100 µM
TGI [56]: > 100 µM
TGI [57]: > 100 µM
TGI [58]: > 100 µM

COc1cc(C2CC(C)(N3CCCC3)Oc3cc4c(cc32)OCO4)cc(OC)c1OC (centres undefined)
TGI [1]: 3.5 µM
TGI [2]: 43.7 µM
TGI [3]: > 49.3 µM
TGI [4]: 10.9 µM
TGI [5]: > 49.6 µM
TGI [6]: > 100 µM
TGI [7]: > 100 µM
TGI [8]: > 100 µM
TGI [9]: 45 µM
TGI [10]: 0.0552 µM
TGI [11]: > 100 µM
TGI [12]: > 100 µM
TGI [13]: 16.4 µM
TGI [14]: > 100 µM
TGI [15]: 39 µM
TGI [59]: 3.55 µM
TGI [17]: 0.492 µM
TGI [20]: 87.7 µM
TGI [21]: > 100 µM
TGI [22]: 0.468 µM
TGI [24]: > 50.7 µM
TGI [25]: > 100 µM
TGI [27]: > 44.7 µM
TGI [28]: 15 µM
TGI [29]: > 100 µM
TGI [30]: > 100 µM
TGI [31]: > 100 µM
TGI [33]: > 100 µM
TGI [34]: > 87.6 µM
TGI [35]: > 64 µM
TGI [37]: > 100 µM
TGI [38]: > 100 µM
TGI [39]: 17 µM
TGI [40]: 32.5 µM
TGI [41]: 73.8 µM
TGI [42]: > 100 µM
TGI [43]: > 100 µM
TGI [44]: 6.12 µM
TGI [45]: > 100 µM
TGI [46]: > 100 µM
TGI [47]: 2.19 µM
TGI [48]: > 100 µM
TGI [49]: > 100 µM
TGI [50]: 0.603 µM
TGI [51]: > 100 µM
TGI [52]: > 82.4 µM
TGI [53]: 17.9 µM
TGI [54]: 0.0909 µM
TGI [56]: > 51.2 µM
TGI [57]: 6.14 µM
TGI [58]: 21.9 µM

C[C@]12CC[C@@H]3c4ccc(OS(N)(=O)=O)cc4CC[C@H]3[C@@H]1CCC2=O
TGI [1]: > 100 µM
TGI [2]: > 100 µM
TGI [4]: > 100 µM
TGI [5]: > 100 µM
TGI [6]: > 100 µM
TGI [7]: > 100 µM
TGI [8]: > 100 µM
TGI [9]: > 100 µM
TGI [10]: > 100 µM
TGI [11]: > 100 µM
TGI [12]: > 100 µM
TGI [13]: > 100 µM
TGI [14]: > 100 µM
TGI [15]: > 100 µM
TGI [16]: > 100 µM
TGI [17]: > 100 µM
TGI [18]: > 100 µM
TGI [19]: 38.8 µM
TGI [20]: > 100 µM
TGI [21]: > 100 µM
TGI [22]: > 100 µM
TGI [23]: > 100 µM
TGI [24]: > 100 µM
TGI [25]: > 100 µM
TGI [26]: > 100 µM
TGI [27]: > 100 µM
TGI [28]: > 100 µM
TGI [29]: > 100 µM
TGI [30]: > 100 µM
TGI [31]: > 100 µM
TGI [32]: > 100 µM
TGI [33]: > 100 µM
TGI [34]: > 100 µM
TGI [35]: > 100 µM
TGI [36]: > 100 µM
TGI [37]: > 100 µM
TGI [39]: > 100 µM
TGI [40]: > 100 µM
TGI [41]: > 100 µM
TGI [42]: > 100 µM
TGI [43]: > 100 µM
TGI [44]: > 100 µM
TGI [45]: > 100 µM
TGI [46]: > 100 µM
TGI [48]: > 100 µM
TGI [49]: > 100 µM
TGI [50]: > 100 µM
TGI [51]: > 100 µM
TGI [52]: > 100 µM
TGI [53]: > 100 µM
TGI [54]: > 100 µM
TGI [55]: > 100 µM
TGI [56]: > 100 µM
TGI [57]: > 100 µM
TGI [58]: > 100 µM
